Data from patent publication US20050221328A1, “Inhibitors of inflammatory gene activity and cholesterol biosynthesis” (Wyeth, priority 2002, published 2005).
Entries after “also recorded” stand apart in the source; their conditions may differ.

Columns and labels:
[1] = test system: Fnk, JAB, LIX, bcl-3 and SHP; experiment: Liver expression of Fnk, JAB, LIX, bcl-3 and SHP by realtime PCR after estrogen receptor ligand pretreatment and IL-1β; conditions: for effect on regulation of liver Fnk, JAB, LIX, bcl-3 and SHP expression vs IL-1β alone / inhibition of IL-1β induction of Fnk, JAB, LIX and bcl-3: 100 ug/kg/day EE, 5 mg/kg/day raloxifene; for effect on regulation of liver Fnk, JAB, LIX, bcl-3 and SHP expression vs IL-1β alone: 1 or 10 mg/kg/day E2, 30 mg/kg/day genistein, 10 mg/kg/day ICI182780, plus IL-1β; for inhibition of IL-1β induction of Fnk, JAB, LIX and bcl-3: mouse liver, 30 mg/kg/day genistein
Protocol: Referring to FIG. 3a, to distinguish these two mechanisms, the IL-1β fold induction of Fnk, JAB, LIX, and bcl-3 and the IL-1β fold repression of SHP was quantified in animals pretreated with vehicle (black bars) or 100 ug/kg/day EE (grey bars). Liver RNA levels of each gene (mean +/−SEM) were determined by realtime PCR of RNA from each individual animal.
Referring to FIGS. 4a, 4b, 4c, 4d and 4e, experiments were conducted to determine whether EE blocks IL-1β induction of gene expression by an estrogen receptor (ER) dependent mechanism. Estrogens can regulate gene expression by many mechanisms including ER independent pathways such as antioxidant mechanisms. […] Liver expression levels of Fnk, JAB, LIX, bcl-3 and SHP (mean +/−SEM) were determined by realtime PCR.
Referring to FIGS. 5a, 5b, 5c, 5d, and 5e, experiments were conducted to determine whether ERα is required for EE regulation of gene expression in the liver. To determine whether ERα or ERβ mediated the EE effects on IL-1β gene expression in the liver, C57BL/6 wild type mice, C57BL/6 ERαKO mice, or 129 ERβKO mice were pretreated with vehicle (black bars) or […] EE (gray bars) for 5 days followed by a 1 hour treatment with IL-1β. Liver expression levels of Fnk, JAB, LIX, bcl-3, and SHP (mean +/−SEM) were quantified by realtime PCR, with expression in animals receiving vehicle+PBS defined as 1.0.

SHP [2] = experiment: Regulation of SHP expression in mouse liver, six weeks treatment, real time PCR; assay type: in vivo; conditions: for liver SHP mRNA levels, WT animals: ovariectomized wildtype mice, sc six weeks, 10 ug/kg/day E2, 5 mg/kg/day tamoxifen, 5 mg/kg/day PPT
Protocol: Several experiments were conducted to investigate the regulation of SHP expression, as follows. Referring to FIG. 9, ERα regulation of SHP expression in mouse liver was studied. […] Liver expression of SHP was monitored by real time PCR, with normalization for GAPDH expression. […] ICI182780 inhibited this induction.

human SHP promoter = experiment: hSHP promoter luciferase reporter in HepG2 or 293 cells cotransfected with human ERα; assay type: cell-based; conditions: for SHP promoter activity, compound alone: 10 nM E2 or 1 uM compound, 24 hours
Protocol: Referring to FIGS. 11a and 11b, ERα regulation of hSHP promoter activity in human cells was examined. Human HepG2 or 293 cells were cotransfected with a control SV40 driven β-galactosidase plasmid, a luceriferase plasmid driven by 1.4 kb of the human SHP promoter, and an expression plasmid encoding either no protein or human ERα. […] Cell extracts were then analyzed for luciferase activity normalized for β-galactosidase activity.
Referring to FIGS. 12a, 12b, and 12c, ERα regulation of hSHP promoter activity in 293 cells was examined. Referring to FIGS. 12a and 12b, 293 cells were cotransfected with a control SV4O driven […] plasmid, a luceriferase plasmid driven by either 1.4 kb of the human SHP promoter or a synthetic 2×ERE/TK promoter, and an expression plasmid for human ERα. […] Cell extracts were then analyzed for luciferase activity with normalization for β-galaetosidase activity.

SHP [3] = experiment: Regulation of SHP by estrogen in the rat liver, real time PCR; assay type: in vivo; conditions: ovariectomized Sprague-Dawley rats, 10 ug/kg/day E2 or 5 mg/kg/day PPT, six weeks
Description: Liver expression of SHP was monitored by real time PCR, with normalization for GAPDH expression.

[4] = test system: prostaglandin D synthase, IPS; experiment: Liver expression of prostaglandin D synthase and IPS; assay type: in vivo; conditions: mouse liver; 30 mg/kg/day genistein, 5 mg/kg/day raloxifene
Description: Referring to FIGS. 6a and 6b, experiments were constructed and performed to establish that EE induction of gene expression is not required for ERα inhibition of IL-1β gene inductions. […] The expression level in the vehicle+PBS treated mice was defined as 1.0. […] However, there was no correlation between the ability of these compounds to inhibit IL-1β gene induction (EE>genistein>raloxifene) and the ability of these compounds to stimulate prostaglandin D synthase expression (EE>>raloxifene>genistein).

C[C@]12CC[C@@H]3c4ccc(O)cc4CC[C@H]3[C@@H]1CC[C@@H]2O [E2, 17β-estradiol]
effect on regulation of liver Fnk, JAB, LIX, bcl-3 and SHP expression vs IL-1β alone ([1]; mice): greatest effect
expression of SHP in ERαKO or ERαβKO mice (SHP [2]; 10 ug/kg/day E2, six weeks): did not induce
expression of SHP in ERβKO mice (SHP [2]; 10 ug/kg/day E2, six weeks): still induced
liver SHP mRNA levels, WT animals (SHP [2]): induced
SHP promoter activity, compound alone (human SHP promoter; 293 cells with human ERα): stimulated
SHP promoter activity (human SHP promoter; HepG2 or 293 cells, 10 nM E2 24 hours, only in cells expressing ERα): induced
liver SHP expression, rat (SHP [3]): significantly induced

O=c1c(-c2ccc(O)cc2)coc2cc(O)cc(O)c12 [Genistein, genistein]
effect on regulation of liver Fnk, JAB, LIX, bcl-3 and SHP expression vs IL-1β alone ([1]; mice): magnitude was not as great
inhibition of IL-1β induction of Fnk, JAB, LIX and bcl-3 [1]: inhibited
induction of IPS [4]: no induction

CCCc1c(-c2ccc(O)cc2)nn(-c2ccc(O)cc2)c1-c1ccc(O)cc1 [PPT]
liver SHP mRNA levels, WT animals (SHP [2]): induced
liver SHP expression, rat (SHP [3]): significantly induced

O=C(c1ccc(OCCN2CCCCC2)cc1)c1c(-c2ccc(O)cc2)sc2cc(O)ccc12 [raloxifene]
SHP expression in liver ([1]; mice, 5 mg/kg/day raloxifene (FIG. 4)): did not increase
effect on regulation of liver Fnk, JAB, LIX, bcl-3 and SHP expression vs IL-1β alone ([1]; mice): magnitude was not as great
inhibition of IL-1β induction of Fnk, JAB, LIX and bcl-3 [1]: able to inhibit; also recorded: inhibited
induction of IPS [4]: very weak induction
SHP promoter activity, compound alone (human SHP promoter; 293 cells with human ERα): inactive alone
effect on E2 activity at SHP promoter (human SHP promoter; 293 cells with human ERα, 1 uM compound plus 10 nM E2): antagonized
